# Test results taken from patent US20040255343A1, “Caspase-9 deficient animals and the use thereof” (priority 1998, published 2004).
# Experiments:
# Caspase-9 −/− thymocytes [1] = experiment: DNA fragmentation assay (DNA laddering on agarose gel); assay type: cell-based, mice
# Description: (§1) Thymocytes were isolated from wild type and Caspase9 −/− mice. One million cells were treated with 2 μM dexamethasone (Sigma), 1 μM staurosporine (Sigma), 1 μg/ml anti-mouse Fas antibody (PharMingen) plus […] cycloheximide (Sigma), or 10% FCS medium only for 6 hr or 24 hr. Samples were stained with Annexin V (Boehringer Mannheim) and 7-aminoactinomycin D (7-AAD) (Sigma) to label apoptotic cells for FACS Sort (Becton Dickinson).
# DNA was isolated using a DNA isolation kit (LeMax Biotech) and subjected to electrophoresis on a 2% agarose gel. Gels were stained by ethidium bromide and images were taken by a scanner.
# Caspase-9 −/− thymocytes [2] = experiment: Apoptosis assay using thymocytes (Annexin V / 7-AAD, FACS); assay type: cell-based, mice; conditions: Caspase-9 −/− thymocytes vs wild type; 2 μM dexamethasone, 1 μM staurosporine or 1 μg/ml anti-mouse Fas antibody plus cycloheximide; 6 hr or 24 hr
# Excerpt: To investigate the role of Caspase-9 in apoptosis pathways in other systems, we used primary cultures of thymocytes. Although thymocytes from Caspase9 −/− animals developed normally with no differences in the number of thymocytes or in the ratio of surface markers such as CD4, CD8 or CD3 (data not shown), we challenged the thymocytes with several apoptotic stimuli: dexamethasone, staurosporine, and anti-Fas antibody
# as §1
compound,measurement,setting,value
CN[C@@H]1C[C@H]2O[C@@](C)([C@@H]1OC)n1c3ccccc3c3c4c(c5c6ccccc6n2c5c31)C(=O)NC4 [staurosporine],DNA laddering,"Caspase-9 −/− thymocytes [1]; Caspase-9 deficient thymocytes, up to 24 hours of treatment",DNA laddering was also eliminated
same,DNA cleavage after long-term treatment,"Caspase-9 −/− thymocytes [1]; Caspase-9 −/− thymocytes, 36 and 48 hours of continual treatment (data not shown)",did begin to cleave their DNA
same,thymocyte survival / induced cell death,Caspase-9 −/− thymocytes [2],reduced survival which was comparable to the death seen in controls
